We go through 29 molecules from patent US20090227575A1, “7H-PYRROLO[2,3-H]QUINAZOLINE COMPOUNDS, THEIR USE AS mTOR KINASE AND PI3 KINASE INHIBITORS, AND THEIR [sequence]” (Wyeth, priority 2008, published 2009).

Common to all, as to format: biochemical
Test [1] has as its target human SMG-1 (hSMG-1) (Homo sapiens, UniProt Q96Q15). Put plainly: hSMG-1 kinase assay (DELFIA). The following applies: read-out: hSMG1 IC50.
Test [2] addresses Human mTOR (Homo sapiens, UniProt P42345). In words: mTOR kinase assay (DELFIA format, purified enzyme). Also on record: FLAG. The note with it: read-out: TOR Kinase IC50.
In test [3] the target is PI3K-alpha (Homo sapiens, UniProt P42336). In words: PI3K-alpha fluorescence polarization assay. The following applies: read-out: PI3 Kinase α IC50. Summed up: (§1)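 Diluted enzyme and compound (1% DMSO) reacted with diC8 PIP2 and ATP substrate in 20 mM HEPES pH 7.5, 2 mM MgCl2, 0.05% CHAPS for 30–60 min. Stopped with EDTA buffer holding 10 nM TAMRA probe and 70 nM GST-GRP. FP (mP) read after 30–90 min against zero-time and no-enzyme controls.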
Background: In fluorescence polarisation assays a small probe gives low polarisation when free and higher when bound to something large.

The target of test [4] is PI3K-gamma (Homo sapiens, UniProt P48736). Put plainly: PI3K-gamma fluorescence polarization assay. The following applies: read-out: PI3 Kinase γ IC50. Summed up: as §1

Usually pIC50 stands for the negative decadic logarithm of the IC50, by convention in mol/L.

pIC50: −log10 of the molar value.

Sequence of PI3K-gamma (P48736 whole entry, species assumed): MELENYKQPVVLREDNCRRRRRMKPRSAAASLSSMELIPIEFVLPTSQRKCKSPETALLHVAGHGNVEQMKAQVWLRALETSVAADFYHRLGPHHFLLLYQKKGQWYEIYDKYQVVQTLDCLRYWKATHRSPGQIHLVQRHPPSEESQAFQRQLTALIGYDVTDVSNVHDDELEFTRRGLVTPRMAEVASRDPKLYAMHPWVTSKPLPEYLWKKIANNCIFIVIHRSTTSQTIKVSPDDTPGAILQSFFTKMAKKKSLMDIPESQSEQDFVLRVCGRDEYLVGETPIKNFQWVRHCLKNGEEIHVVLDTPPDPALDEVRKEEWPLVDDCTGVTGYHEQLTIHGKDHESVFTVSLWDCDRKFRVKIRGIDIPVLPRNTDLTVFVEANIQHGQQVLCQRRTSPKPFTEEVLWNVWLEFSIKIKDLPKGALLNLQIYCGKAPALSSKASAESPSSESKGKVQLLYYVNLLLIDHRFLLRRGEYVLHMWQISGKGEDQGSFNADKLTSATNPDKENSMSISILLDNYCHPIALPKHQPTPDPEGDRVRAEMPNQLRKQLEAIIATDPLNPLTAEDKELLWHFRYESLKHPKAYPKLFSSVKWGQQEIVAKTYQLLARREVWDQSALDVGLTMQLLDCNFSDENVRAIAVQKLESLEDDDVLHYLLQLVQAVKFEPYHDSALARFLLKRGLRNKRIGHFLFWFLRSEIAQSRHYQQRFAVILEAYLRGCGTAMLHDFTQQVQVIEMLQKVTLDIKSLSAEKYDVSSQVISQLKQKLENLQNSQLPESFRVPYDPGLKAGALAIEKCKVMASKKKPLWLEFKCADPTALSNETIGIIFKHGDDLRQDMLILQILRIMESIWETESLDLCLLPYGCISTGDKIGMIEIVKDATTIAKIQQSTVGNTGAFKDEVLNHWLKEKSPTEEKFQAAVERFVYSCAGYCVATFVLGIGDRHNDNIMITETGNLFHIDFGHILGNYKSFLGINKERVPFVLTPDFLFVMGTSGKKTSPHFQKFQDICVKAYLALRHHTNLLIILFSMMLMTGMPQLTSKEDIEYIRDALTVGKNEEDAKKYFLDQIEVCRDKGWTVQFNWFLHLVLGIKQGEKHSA
Sequence of human SMG-1 (hSMG-1) (Q96Q15 whole entry): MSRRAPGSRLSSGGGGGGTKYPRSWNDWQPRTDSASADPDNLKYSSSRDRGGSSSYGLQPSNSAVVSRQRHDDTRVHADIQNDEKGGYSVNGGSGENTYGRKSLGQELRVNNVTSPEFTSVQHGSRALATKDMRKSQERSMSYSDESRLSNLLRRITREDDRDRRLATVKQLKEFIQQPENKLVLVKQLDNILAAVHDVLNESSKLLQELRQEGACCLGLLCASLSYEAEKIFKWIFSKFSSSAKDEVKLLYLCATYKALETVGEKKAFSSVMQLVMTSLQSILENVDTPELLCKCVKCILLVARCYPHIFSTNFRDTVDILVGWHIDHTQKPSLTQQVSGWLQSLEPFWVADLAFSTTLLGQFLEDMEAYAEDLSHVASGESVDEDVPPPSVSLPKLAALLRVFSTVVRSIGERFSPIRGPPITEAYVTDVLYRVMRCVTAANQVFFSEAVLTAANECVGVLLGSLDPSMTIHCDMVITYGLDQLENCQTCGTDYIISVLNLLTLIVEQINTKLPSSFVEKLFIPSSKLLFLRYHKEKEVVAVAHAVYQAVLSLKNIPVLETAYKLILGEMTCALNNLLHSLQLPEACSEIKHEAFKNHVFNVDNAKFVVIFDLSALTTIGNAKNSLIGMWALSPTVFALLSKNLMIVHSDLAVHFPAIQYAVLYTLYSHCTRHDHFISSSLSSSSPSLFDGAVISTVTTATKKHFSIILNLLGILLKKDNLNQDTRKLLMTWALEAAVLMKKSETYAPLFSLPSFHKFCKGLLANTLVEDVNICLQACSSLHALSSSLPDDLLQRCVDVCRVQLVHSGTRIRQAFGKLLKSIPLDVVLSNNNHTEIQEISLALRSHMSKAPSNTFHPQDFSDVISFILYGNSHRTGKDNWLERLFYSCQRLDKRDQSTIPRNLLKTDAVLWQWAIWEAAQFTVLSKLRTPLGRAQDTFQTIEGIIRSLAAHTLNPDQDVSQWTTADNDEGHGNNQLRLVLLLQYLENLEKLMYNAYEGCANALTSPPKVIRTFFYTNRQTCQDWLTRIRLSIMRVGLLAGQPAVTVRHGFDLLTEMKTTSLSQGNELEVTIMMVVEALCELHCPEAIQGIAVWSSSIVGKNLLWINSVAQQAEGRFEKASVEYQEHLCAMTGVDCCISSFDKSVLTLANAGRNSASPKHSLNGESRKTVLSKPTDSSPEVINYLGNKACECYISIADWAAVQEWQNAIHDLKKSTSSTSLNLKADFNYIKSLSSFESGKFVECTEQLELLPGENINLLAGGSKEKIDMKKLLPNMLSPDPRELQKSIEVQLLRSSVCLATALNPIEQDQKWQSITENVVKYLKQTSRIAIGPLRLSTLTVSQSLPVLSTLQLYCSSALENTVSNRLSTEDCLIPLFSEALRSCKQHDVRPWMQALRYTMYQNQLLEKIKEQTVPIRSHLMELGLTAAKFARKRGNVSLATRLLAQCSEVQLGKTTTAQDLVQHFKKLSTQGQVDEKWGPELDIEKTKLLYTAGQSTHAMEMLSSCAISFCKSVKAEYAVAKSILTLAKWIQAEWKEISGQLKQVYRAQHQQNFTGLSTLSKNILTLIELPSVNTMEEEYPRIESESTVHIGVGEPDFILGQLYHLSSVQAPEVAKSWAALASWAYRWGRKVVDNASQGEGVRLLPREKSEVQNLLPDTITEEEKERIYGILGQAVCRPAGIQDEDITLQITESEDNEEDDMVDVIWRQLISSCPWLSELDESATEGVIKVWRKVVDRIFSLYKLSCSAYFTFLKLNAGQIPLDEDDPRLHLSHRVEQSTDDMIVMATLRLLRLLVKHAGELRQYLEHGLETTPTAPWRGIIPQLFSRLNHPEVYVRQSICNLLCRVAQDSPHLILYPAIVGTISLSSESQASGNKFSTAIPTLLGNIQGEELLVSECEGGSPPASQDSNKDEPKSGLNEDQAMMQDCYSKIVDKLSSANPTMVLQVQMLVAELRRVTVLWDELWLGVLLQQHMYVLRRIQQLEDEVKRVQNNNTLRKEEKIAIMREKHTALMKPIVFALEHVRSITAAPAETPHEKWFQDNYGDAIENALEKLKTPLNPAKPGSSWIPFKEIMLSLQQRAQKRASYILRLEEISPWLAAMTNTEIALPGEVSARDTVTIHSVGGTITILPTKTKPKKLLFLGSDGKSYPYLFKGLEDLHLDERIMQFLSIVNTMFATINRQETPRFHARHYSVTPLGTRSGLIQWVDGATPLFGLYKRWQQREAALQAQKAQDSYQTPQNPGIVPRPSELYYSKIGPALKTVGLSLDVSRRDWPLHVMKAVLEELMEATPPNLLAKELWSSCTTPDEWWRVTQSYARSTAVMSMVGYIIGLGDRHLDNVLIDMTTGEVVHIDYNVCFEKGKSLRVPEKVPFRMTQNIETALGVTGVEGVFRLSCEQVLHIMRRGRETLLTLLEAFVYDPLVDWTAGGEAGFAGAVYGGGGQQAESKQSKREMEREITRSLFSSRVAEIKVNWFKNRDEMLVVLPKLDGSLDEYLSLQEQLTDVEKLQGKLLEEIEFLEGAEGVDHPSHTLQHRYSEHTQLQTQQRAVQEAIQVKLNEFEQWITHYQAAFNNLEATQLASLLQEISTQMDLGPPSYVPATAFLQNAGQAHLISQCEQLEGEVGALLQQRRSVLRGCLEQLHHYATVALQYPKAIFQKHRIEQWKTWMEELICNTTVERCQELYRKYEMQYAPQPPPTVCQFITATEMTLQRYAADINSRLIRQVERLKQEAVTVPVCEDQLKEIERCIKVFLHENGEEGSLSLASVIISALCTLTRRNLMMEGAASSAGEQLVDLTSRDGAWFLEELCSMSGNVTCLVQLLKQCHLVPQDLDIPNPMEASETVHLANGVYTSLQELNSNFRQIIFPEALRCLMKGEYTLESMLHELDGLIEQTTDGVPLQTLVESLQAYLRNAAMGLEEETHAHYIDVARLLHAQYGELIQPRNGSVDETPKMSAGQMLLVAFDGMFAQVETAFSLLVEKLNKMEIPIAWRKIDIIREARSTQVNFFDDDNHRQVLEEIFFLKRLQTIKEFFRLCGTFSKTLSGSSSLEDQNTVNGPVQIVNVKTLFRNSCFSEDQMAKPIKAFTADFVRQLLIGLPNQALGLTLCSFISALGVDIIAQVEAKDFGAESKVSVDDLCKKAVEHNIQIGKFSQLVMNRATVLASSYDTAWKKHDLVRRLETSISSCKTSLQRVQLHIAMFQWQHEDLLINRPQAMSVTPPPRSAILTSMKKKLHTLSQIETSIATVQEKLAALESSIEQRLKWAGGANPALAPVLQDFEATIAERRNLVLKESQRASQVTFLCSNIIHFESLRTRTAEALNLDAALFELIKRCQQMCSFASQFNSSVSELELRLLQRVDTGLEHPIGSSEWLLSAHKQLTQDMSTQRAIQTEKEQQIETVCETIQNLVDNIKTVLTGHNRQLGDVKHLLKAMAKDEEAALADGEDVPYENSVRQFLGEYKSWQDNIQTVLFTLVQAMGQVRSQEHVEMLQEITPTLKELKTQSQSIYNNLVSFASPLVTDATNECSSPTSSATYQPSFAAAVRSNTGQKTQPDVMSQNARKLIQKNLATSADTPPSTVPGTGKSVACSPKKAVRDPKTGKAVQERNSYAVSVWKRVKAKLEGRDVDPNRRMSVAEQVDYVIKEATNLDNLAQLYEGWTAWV

Turning to `CCCC(=O)Nc1ccc(-c2nc(N3CCOCC3)c3ccc4c(ccn4CCN(C)C)c3n2)cc1` [Example 97, N-(4-{7-[2-(dimethylamino)ethyl]-4-morpholin-4-yl-7H-pyrrolo[2,3-h]quinazolin-2-yl}phenyl)butanamide], the pIC50 in test [1] is below 4.70; in test [2] it was 5.21.
With `CCCC(=O)Nc1ccc(-c2nc(N3CCOCC3)c3ccc4c(ccn4S(C)(=O)=O)c3n2)cc1` [Example 88, N-{4-[7-(methylsulfonyl)-4-morpholin-4-yl-7H-pyrrolo[2,3-h]quinazolin-2-yl]phenyl}butanamide], in test [1], the pIC50 was below 4.70.
`CN(C)CCn1ccc2c3nc(-c4ccc(NC(=O)Nc5ccccc5)cc4)nc(N4CCOCC4)c3ccc21` [Example 95, 1-(4-{7-[2-(dimethylamino)ethyl]-4-morpholin-4-yl-7H-pyrrolo[2,3-h]quinazolin-2-yl}phenyl)-3-phenylurea]: the pIC50 in test [1] is 5.74; in test [2], 7.30.
In the case of `Cn1ccc2c3nc(-c4ccc(NC(=O)NCC5CC5)cc4)nc(N4CCOCC4)c3ccc21` [Example 100, 1-(cyclopropylmethyl)-3-[4-(7-methyl-4-morpholin-4-yl-7H-pyrrolo[2,3-h]quinazolin-2-yl)phenyl]urea], the pIC50 was 4.80 in test [1] and 6.30 in test [2].
Regarding `CCOC(=O)Nc1cccc(-c2nc(N3CCOCC3)c3ccc4c(ccn4C)c3n2)c1` [Example 124, ethyl [3-(7-methyl-4-morpholin-4-yl-7H-pyrrolo[2,3-h]quinazolin-2-yl)phenyl]carbamate], the figures for the pIC50 in test [1] and in test [2] were below 4.70 and 5.72, respectively.
As to `Cn1ccc2c3nc(-c4ccc(NC(=O)NCC5CCCO5)cc4)nc(N4CCOCC4)c3ccc21` (centres unmarked) [Example 102, 1-[4-(7-methyl-4-morpholin-4-yl-7H-pyrrolo[2,3-h]quinazolin-2-yl)phenyl]-3-(tetrahydrofuran-2-ylmethyl)urea], the pIC50 in test [1] is below 4.77; in test [2], 5.82.
On the same counts, the results for `CCNC(=O)Nc1cccc(-c2nc(N3CCOCC3)c3ccc4c(ccn4C)c3n2)c1` [Example 128, 1-ethyl-3-[3-(7-methyl-4-morpholin-4-yl-7H-pyrrolo[2,3-h]quinazolin-2-yl)phenyl]urea] are below 4.70 and 5.74.
In the case of `CCCC(=O)Nc1cccc(-c2nc(N3CCOCC3)c3ccc4c(ccn4C)c3n2)c1` [Example 126, N-[3-(7-methyl-4-morpholin-4-yl-7H-pyrrolo[2,3-h]quinazolin-2-yl)phenyl]butanamide], the pIC50 in test [1] is below 4.70; in test [2] it was 5.72.
On to `CC(=O)Nc1ccc(-c2nc(N3CCOCC3)c3ccc4c(ccn4S(C)(=O)=O)c3n2)cc1` [Example 92, N-{4-[7-(methylsulfonyl)-4-morpholin-4-yl-7H-pyrrolo[2,3-h]quinazolin-2-yl]phenyl}acetamide], for which the pIC50 in test [1] is 5.28.
`CC(=O)c1ccc(NC(=O)Nc2ccc(-c3nc(N4CCOCC4)c4ccc5c(ccn5C)c4n3)cc2)cc1` [Example 115, 1-(4-acetylphenyl)-3-[4-(7-methyl-4-morpholin-4-yl-7H-pyrrolo[2,3-h]quinazolin-2-yl)phenyl]urea]: the pIC50 in test [1] is 5.37; in test [2], 6.33.
With `CS(=O)(=O)n1ccc2c3nc(-c4ccc(NC(=O)C5CC5)cc4)nc(N4CCOCC4)c3ccc21` [Example 87, N-{4-[7-(methylsulfonyl)-4-morpholin-4-yl-7H-pyrrolo[2,3-h]quinazolin-2-yl]phenyl}cyclopropanecarboxamide], in test [1], the pIC50 is 5.25.
In the case of `COC(=O)Nc1ccc(-c2nc(N3CCOCC3)c3ccc4c(ccn4S(C)(=O)=O)c3n2)cc1` [Example 90, methyl {4-[7-(methylsulfonyl)-4-morpholin-4-yl-7H-pyrrolo[2,3-h]quinazolin-2-yl]phenyl}carbamate], the negative logarithm of the IC50 (pIC50) in test [1] was 5.25.
Regarding `CCOC(=O)Nc1ccc(-c2nc(N3CCOCC3)c3ccc4c(ccn4S(C)(=O)=O)c3n2)cc1` [Example 86, ethyl {4-[7-(methylsulfonyl)-4-morpholin-4-yl-7H-pyrrolo[2,3-h]quinazolin-2-yl]phenyl}carbamate], in test [1], the pIC50 is 4.81.
Take `Cn1ccc2c3nc(-c4cccc(NC(=O)Nc5ccncc5)c4)nc(N4CCOCC4)c3ccc21` [Example 122, 1-[3-(7-methyl-4-morpholin-4-yl-7H-pyrrolo[2,3-h]quinazolin-2-yl)phenyl]-3-pyridin-4-ylurea]: the pIC50 in test [1] is 5.19.
As for `Cn1ccc2c3nc(-c4cccc5[nH]ncc45)nc(N4CCOCC4)c3ccc21` [Example 79, 2-(1H-indazol-4-yl)-7-methyl-4-morpholin-4-yl-7H-pyrrolo[2,3-h]quinazoline], the pIC50 in test [3] is 5.97; in test [2], 6.36; in test [4], 5.22.
Regarding `Cn1ccc2c3nc(-c4ccc(NC(=O)NCCCn5ccnc5)cc4)nc(N4CCOCC4)c3ccc21` [Example 8, 1-[3-(1H-imidazol-1-yl)propyl]-3-[4-(7-methyl-4-morpholin-4-yl-7H-pyrrolo[2,3-h]quinazolin-2-yl)phenyl]urea], the pIC50 in test [3] was 6.37; in test [2] it was 6.72; in test [4], 5.52.
For `CCNC(=O)Nc1ccc(-c2nc(N3CCOCC3)c3ccc4c(ccn4CCN(C)C)c3n2)cc1` [Example 94, 1-(4-{7-[2-(dimethylamino)ethyl]-4-morpholin-4-yl-7H-pyrrolo[2,3-h]quinazolin-2-yl}phenyl)-3-ethylurea], the pIC50 in test [1] was 5.70.
Regarding `CN(C)CCn1ccc2c3nc(-c4cccc(O)c4)nc(N4CCOCC4)c3ccc21` [Example 32, 3-{7-[2-(dimethylamino)ethyl]-4-morpholin-4-yl-7H-pyrrolo[2,3-h]quinazolin-2-yl}phenol], the results for the pIC50 in test [3], in test [2] and in test [4] were 6.49, 5.34 and 5.44, respectively.
As to `CN(C)CCNC(=O)Nc1ccc(-c2nc(N3CCOCC3)c3ccc4c(ccn4C)c3n2)cc1` [Example 4, 1-[2-(dimethylamino)ethyl]-3-[4-(7-methyl-4-morpholin-4-yl-7H-pyrrolo[2,3-h]quinazolin-2-yl)phenyl]urea], the figures for the pIC50 in test [3], in test [2] and in test [4] were 6.14, 5.69 and 5.55, respectively.
In the case of `CS(=O)(=O)n1ccc2c3nc(-c4ccc(NC(=O)Nc5ccccc5)cc4)nc(N4CCOCC4)c3ccc21` [Example 84, 1-{4-[7-(methylsulfonyl)-4-morpholin-4-yl-7H-pyrrolo[2,3-h]quinazolin-2-yl]phenyl}-3-phenylurea], the pIC50 in test [1] is 6.32.
Consider `Cn1ccc2c3nc(-c4ccc(NC(=O)c5ccncc5)cc4)nc(N4CCOCC4)c3ccc21` [Example 18, N-[4-(7-methyl-4-morpholin-4-yl-7H-pyrrolo[2,3-h]quinazolin-2-yl)phenyl]isonicotinamide], for which the pIC50 in test [3] was 5.35; in test [2], 5.84; in test [4] it was 5.25.
Turning to `CCC(=O)Nc1ccc(-c2nc(N3CCOCC3)c3ccc4c(ccn4S(C)(=O)=O)c3n2)cc1` [Example 91, N-{4-[7-(methylsulfonyl)-4-morpholin-4-yl-7H-pyrrolo[2,3-h]quinazolin-2-yl]phenyl}propanamide], the pIC50 in test [1] is 5.21.
In the case of `O=S(=O)(c1ccccc1)n1ccc2c3nc(-c4cccc5[nH]ncc45)nc(N4CCOCC4)c3ccc21` [Example 72, 2-(1H-indazol-4-yl)-4-morpholin-4-yl-7-(phenylsulfonyl)-7H-pyrrolo[2,3-h]quinazoline], the pIC50 in test [3] is 5.40; in test [2] it was 5.49; in test [4], 5.29.
In the same order, the values of `COCOc1cncc(-c2nc(N3CCOCC3)c3ccc4c(ccn4S(C)(=O)=O)c3n2)c1` [Example 75, 2-[5-(methoxymethoxy)pyridin-3-yl]-7-(methylsulfonyl)-4-morpholin-4-yl-7H-pyrrolo[2,3-h]quinazoline] are below 5.00, 4.78 and below 5.00.
In the case of `Cn1ccc2c3nc(-c4ccc(NC(=O)NCc5ccco5)cc4)nc(N4CCOCC4)c3ccc21` [Example 7, 1-(2-furylmethyl)-3-[4-(7-methyl-4-morpholin-4-yl-7H-pyrrolo[2,3-h]quinazolin-2-yl)phenyl]urea], the values for the pIC50 in test [3], in test [2] and in test [4] were 5.77, 6.25 and 5.46, respectively.
With `CS(=O)(=O)n1ccc2c3nc(-c4cnc(N)nc4)nc(N4CCOCC4)c3ccc21` [Example 73, 5-[7-(methylsulfonyl)-4-morpholin-4-yl-7H-pyrrolo[2,3-h]quinazolin-2-yl]pyrimidin-2-amine], the figures for the pIC50 in test [3], in test [2] and in test [4] were 7.21, 7.20 and 6.70, respectively.
On the same counts, the results for `CNC(=O)Nc1ccc(-c2nc(N3CCOCC3)c3ccc4c(ccn4C)c3n2)cc1` [Example 2, 1-methyl-3-[4-(7-methyl-4-morpholin-4-yl-7H-pyrrolo[2,3h]quinazolin-2-yl)phenyl]urea] are 6.37, 7.18 and 5.27.
In the same order, the values of `Cn1ccc2c3nc(-c4cnc(N)nc4)nc(N4CCOCC4)c3ccc21` [Example 43, 5-(7-methyl-4-morpholin-4-yl-7H-pyrrolo[2,3-h]quinazolin-2-yl)pyrimidin-2-amine] are 7.32, 6.61 and 6.37.
Turning to `CCOC(=O)Nc1ccc(-c2nc(N3CCOCC3)c3ccc4c(ccn4CCN(C)C)c3n2)cc1` [Example 93, ethyl (4-{7-[2-(dimethylamino)ethyl]-4-morpholin-4-yl-7H-pyrrolo[2,3-h]quinazolin-2-yl}phenyl)carbamate], the pIC50 in test [1] was below 4.70.
